The values that follow come from patent US20090018163A1, “Substituted Heterocyclic Ethers and Their Use in CNS Disorders” (Bristol-Myers Squibb Company, priority 2007, published 2009).

Where two headings read alike, the source gives them in different places.

For one experiment, the target named is T1, NK-1 (Homo sapiens, UniProt P25103).
T1 construct: 30 ul/well of a 2×U373 membrane preparation; endogenous in cells; host or cells: U373 cells (crude membrane preparation)
The experiment can be described thus: NK1 radioligand binding assay. To be noted: U373 membrane preparation, [125I]Substance P. The procedure:
(§1) NK-1 Binding assay. Crude membrane suspensions were prepared for the NK1 and SERT radioligand binding assays from U373 cells or recombinant HEK-293 cells expressing hSERT, respectively. Cells were harvested from T-175 flasks as follows. The medium is removed from the flasks and the cells rinsed with HBSS without Ca and without Mg. The cells are then incubated for 5-10 minutes in 10 mM Tris-Cl, pH 7.5, 5 mM EDTA before the cells are lifted with a combination of pipetting and scraping, as needed. To prepare membranes, the cell suspension is collected into centrifuge bottles and homogenized for 30 seconds with a Polytron homogenizer. The suspension is centrifuged for 30 min @ 32,000×g, 4° C., then the supernatant is decanted and the pellet resuspended and homogenized in 50 mM Tris-Cl, pH 7.5, 1 mM EDTA for 10 seconds. The suspension is then centrifuged again for 30 min @ 32,000×g, 4° C. The supernatant is decanted and the pellet resuspended in 50 mM Tris-Cl, pH 7.5, 1 mM EDTA and briefly homogenized. A Bradford assay (Bio-rad) is performed and the membrane preparation diluted to 2 mg/ml with 50 mM Tris-Cl, pH 7.5, 1 mM EDTA. Aliquots are prepared, and then frozen and stored at −80° C.
NK1 radioligand binding assay. Compounds are dissolved in 100% DMSO at a concentration 100× the desired highest assay concentration, serially diluted 1:3 in 100% DMSO, and 0.6 ul/well of each solution is dispensed to a Nunc polypropylene, round bottom, 384 well plate. 100% inhibition is defined with 0.6 ul/well of 1 mM L-733,060 (Sigma L-137) dissolved in DMSO. 30 ul/well of a 2×U373 membrane preparation (267 ug/ml in 100 mM Tris-Cl, pH 7.5, 6 mM MgCl2, 0.2% (v/v) Sigma mammalian protease inhibitor cocktail (Sigma P-8340), and 4 ug/ml chymostatin, Sigma C-7268) and 30 ul/well of a 2× radioligand solution (400 pM [^125I]Substance P (Perkin Elmer NEX-190) in 1% (w/v) BSA (Sigma A-2153), 0.1 mg/ml bacitracin, Sigma B-0125) are added to the well and the reaction incubated for 1 hour at room temperature. The contents of the assay plate are then transferred to a Millipore MultiscreenHTS GF/B filter plate which has been pretreated with 0.5% PEI for at least one hour. The plate is vacuum filtered and washed with 7 washes of 100 ul/well of 20 mM Tris-Cl, pH 7.5, 0.5% (w/v) BSA chilled to 4° C. The filtration and washing is completed in less than 90 s. The plates are air-dried overnight, 12 ul/well of MicroScint scintillation fluid added, and the plates counted in a Trilux.
(§2) Data analysis. The raw data are normalized to percent inhibition using control wells defining 0% (DMSO only) and 100% (selective inhibitor) inhibition which are run on each plate. Each plate is run in triplicate, and the concentration response curve thus generated is fit using the four-parameter dose response equation, Y=Bottom+(Top-Bottom)/(1+10̂((LogIC50−X)*HillSlope)) in order to determine the IC50 value for each compound. The radioligand concentration chosen for each assay corresponds to the Kd concentration determined through saturation binding analysis for each assay.

For a further experiment, the target named is T2, hSERT (Homo sapiens, UniProt P31645).
T2 construct: expressed in transfected cells; host or cells: HEK-293 cells (crude membrane preparation)
T2 sequence (P31645 whole entry): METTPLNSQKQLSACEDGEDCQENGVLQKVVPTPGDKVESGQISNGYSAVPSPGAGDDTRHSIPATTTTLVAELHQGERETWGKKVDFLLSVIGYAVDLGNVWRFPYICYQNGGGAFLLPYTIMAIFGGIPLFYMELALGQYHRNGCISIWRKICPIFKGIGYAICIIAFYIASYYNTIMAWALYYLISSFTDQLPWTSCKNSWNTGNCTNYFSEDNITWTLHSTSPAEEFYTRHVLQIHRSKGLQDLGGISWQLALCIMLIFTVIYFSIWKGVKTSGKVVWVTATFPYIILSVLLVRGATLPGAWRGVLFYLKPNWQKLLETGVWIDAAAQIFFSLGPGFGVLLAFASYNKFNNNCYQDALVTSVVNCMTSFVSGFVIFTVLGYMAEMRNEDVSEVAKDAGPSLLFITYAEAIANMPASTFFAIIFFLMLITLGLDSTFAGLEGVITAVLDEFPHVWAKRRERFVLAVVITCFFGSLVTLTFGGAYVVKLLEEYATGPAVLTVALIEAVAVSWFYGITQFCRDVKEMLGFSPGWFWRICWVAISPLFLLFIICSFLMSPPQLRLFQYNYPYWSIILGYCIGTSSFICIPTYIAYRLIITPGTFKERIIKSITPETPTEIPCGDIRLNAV
The experiment can be described thus: SERT radioligand binding assay. The procedure:
as §1
SERT radioligand binding assay. Compounds are dissolved in 100% DMSO at a concentration 100× the desired highest assay concentration, serially diluted 1:3 in 100% DMSO, and 0.4 ul/well of each solution is dispensed to a Nunc polypropylene, round bottom, 384 well plate. 100% inhibition is defined with 0.4 ul/well of 1 mM fluoxetine (Sigma F-132) dissolved in DMSO. 20 ul/well of a 2×HEK-hSERT membrane preparation (15 ug/ml in 50 mM Tris-Cl, pH 7.5, 120 mM NaCl, 5 mM KCl) and 20 ul/well of a 2× radioligand solution (520 pM [^125I]RTI-55 (Perkin-Elmer NEX-272) in 50 mM Tris-Cl, pH 7.5, 120 mM NaCl, 5 mM KCl) are added to each well and the reaction incubated for 1 hour at room temperature. The contents of the assay plate are then transferred to a Millipore MultiscreenHTS GF/B filter plate which has been pretreated with 0.5% PEI for at least one hour. The plate is vacuum filtered and washed with 7 washes of 100 ul/well of 50 mM Tris-Cl, pH 7.5, 120 mM NaCl, 5 mM KCl chilled to 4° C. The filtration and washing is completed in less than 90 s. The plates are air-dried overnight, 12 ul/well of MicroScint scintillation fluid added, and the plates counted in a Trilux.
as §2

Setting [1] is: HEK-hSERT membrane preparation, [125I]RTI-55, Table 1, read-out: SERT IC50.
[2] abbreviates: HEK-hSERT membrane preparation, [125I]RTI-55, Table 1a, single enantiomers, read-out: SERT IC50.

T1 sequence (P25103 whole entry): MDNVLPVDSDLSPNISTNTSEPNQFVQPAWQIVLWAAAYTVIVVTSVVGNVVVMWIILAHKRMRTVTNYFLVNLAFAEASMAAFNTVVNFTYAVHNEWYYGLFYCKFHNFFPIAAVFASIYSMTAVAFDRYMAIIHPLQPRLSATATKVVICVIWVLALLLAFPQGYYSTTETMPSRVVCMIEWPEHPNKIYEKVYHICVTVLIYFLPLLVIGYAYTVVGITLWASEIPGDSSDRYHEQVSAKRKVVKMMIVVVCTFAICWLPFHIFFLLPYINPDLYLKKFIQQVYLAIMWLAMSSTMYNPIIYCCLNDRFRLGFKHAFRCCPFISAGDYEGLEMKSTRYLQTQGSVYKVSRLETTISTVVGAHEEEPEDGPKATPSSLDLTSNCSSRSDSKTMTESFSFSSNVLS

As usually defined, the IC50 is the midpoint of a concentration-inhibition curve. For the compound `Cc1cc(COCC2(c3ccc(F)cc3)CCNCC2)c2ncccc2c1` [Example 29], the half-inhibitory concentration (IC50) at NK-1 (Table 1) and at hSERT (setting [1]) was 0.01 to 100 nM in each case.

Take `Cc1cc(COCC2(c3ccc(F)cc3)CCN(C)CC2)c2ncccc2c1` [Example 30]: the IC50 at NK-1 (Table 1) and on hSERT (setting [1]) was 0.01 to 100 nM each time.

With `Cc1cc(COCC2(c3ccccc3)CCN(C)CC2)nc2ccccc12` [Example 4], the 50% inhibitory concentration (IC50) lay within 100 to 300 nM at NK-1 (Table 1) and 0.01 to 100 nM at hSERT.

For the compound `Cc1cc(C(C)OCC2(c3ccc(F)cc3)CCN(C)CC2)c2ncccc2c1` (single isomer, unassigned) [Example 76], the 50% inhibitory concentration (IC50) lay in the range of 0.01 to 100 nM at NK-1 (Table 1a, single enantiomers) and 0.01 to 100 nM on hSERT (setting [2]).

Regarding `Cc1ccc2nc(COCC3(c4ccccc4)CCNCC3)cc(C)c2c1` [Example 19, 4,6-dimethyl-2-(((4-phenylpiperidin-4-yl)methoxy)methyl)quinoline], the IC50 at NK-1 (Table 1) was above 300 nM; on hSERT (setting [1]) it was 0.01 to 100 nM.

`FC(F)(F)c1ccc2c(Cl)cc(COCC3(c4ccccc4)CCNCC3)nc2c1` [Example 17, 4-chloro-2-(((4-phenylpiperidin-4-yl)methoxy)methyl)-7-(trifluoromethyl)quinoline]: the concentration for half-maximal inhibition (IC50) at NK-1 (Table 1) was above 300 nM; on hSERT (setting [1]) it was 0.01 to 100 nM.

Take `CN(C)c1cc(COCC2(c3ccccc3)CCNCC2)nc2ccccc12` [Example 16, N,N-dimethyl-2-(((4-phenylpiperidin-4-yl)methoxy)methyl)quinolin-4-amine]: the figures for the half-maximal inhibitory concentration (IC50) at NK-1 (Table 1) and on hSERT (setting [1]) were above 300 nM and 0.01 to 100 nM, respectively.

`CN1CCC(COCc2cc(N)c3ccccc3n2)(c2ccccc2)CC1` [Example 8]: the figures for the IC50 on NK-1 (Table 1) and at hSERT were above 300 nM and 0.01 to 100 nM, respectively.

For the compound `c1ccc(C2(COCc3cccc4cccnc34)CCNCC2)cc1` [Example 31, 8-(((4-phenylpiperidin-4-yl)methoxy)methyl)quinoline], the half-inhibitory concentration (IC50) on NK-1 (Table 1) was above 300 nM; at hSERT (setting [1]), 0.01 to 100 nM.

As for `Cc1cc(C(C)OCC2(c3ccc(F)cc3)CCN(C)CC2)c2ncccc2c1` (single isomer, unassigned) [Example 75], the 50% inhibitory concentration (IC50) at NK-1 (Table 1a, single enantiomers) was above 300 nM; on hSERT it was 0.01 to 100 nM.

Consider `Cc1cc(COCC2(c3ccc(F)cc3F)CCNCC2)c2ncccc2c1` [Example 27], for which the IC50 at NK-1 (Table 1) and on hSERT (setting [1]) was 0.01 to 100 nM each time.

For the compound `Cc1cccc2nc(COCC3(c4ccccc4)CCNCC3)cc(C)c12` [Example 21], the half-inhibitory concentration (IC50) at NK-1 (Table 1) was above 300 nM; on hSERT (setting [1]) it was 0.01 to 100 nM.

Take `CN1CCC(COCc2cc(C#N)cc3cccnc23)(c2ccc(F)cc2)CC1` [Example 44, 8-(((4-(4-fluorophenyl)-1-methylpiperidin-4-yl)methoxy)methyl)quinoline-6-carbonitrile]: the half-inhibitory concentration (IC50) was above 300 nM on NK-1 (Table 1) and 0.01 to 100 nM on hSERT.

As to `CN1CCC(COCc2cc(C(F)(F)F)cc3cccnc23)(c2ccc(F)cc2)CC1` [Example 32, 8-(((4-(4-fluorophenyl)-1-methylpiperidin-4-yl)methoxy)methyl)-6-(trifluoromethyl)quinoline], the half-maximal inhibitory concentration (IC50) at NK-1 (Table 1) and at hSERT (setting [1]) was 0.01 to 100 nM throughout.

With `CC(OCC1(c2ccc(F)cc2F)CCNCC1)c1cc(C(F)(F)F)cc2cccnc12` (centres unmarked) [Example 37], the IC50 at NK-1 (Table 1) and on hSERT (setting [1]) was 0.01 to 100 nM each time.

`CC(OCC1(c2ccc(F)cc2)CCNCC1)c1cc(C(F)(F)F)cc2cccnc12` (single isomer, unassigned) [Example 68]: the IC50 on NK-1 (Table 1a, single enantiomers) lay in the range of 0.01 to 100 nM; at hSERT (setting [2]), 0.01 to 100 nM.

Regarding `CC(OCC1(c2ccccc2)CCN(C)CC1)c1cc(C(F)(F)F)cc2cccnc12` (single isomer, unassigned) [Example 72], the half-maximal inhibitory concentration (IC50) on NK-1 (Table 1a, single enantiomers) is above 300 nM; at hSERT, 0.01 to 100 nM.

Turning to `Cc1cc(COCC2(c3ccccc3)CCNCC2)c2ccccc2n1` [Example 1, 2-methyl-4-(((4-phenylpiperidine-4-yl)methoxy)methyl)quinoline], the IC50 is above 300 nM at NK-1 (Table 1) and 0.01 to 100 nM at hSERT (setting [1]).

Turning to `CC(OCC1(c2ccc(F)cc2)CCN(C)CC1)c1cc(C(F)(F)F)cc2cccnc12` (single isomer, unassigned) [Example 69], the IC50 was above 300 nM at NK-1 (Table 1a, single enantiomers) and 0.01 to 100 nM on hSERT (read-out: SERT IC50, HEK-hSERT membrane preparation, [125I]RTI-55, Table 1a, single enantiomers).

As for `FC(F)(F)c1cccc2nc(COCC3(c4ccccc4)CCNCC3)ccc12` [Example 48, 2-(((4-phenylpiperidin-4-yl)methoxy)methyl)-5-(trifluoromethyl)quinoline], the figures for the IC50 at NK-1 (Table 1) and at hSERT (setting [1]) were above 300 nM and 0.01 to 100 nM, respectively.

In the case of `Cc1ccc2cc(COCC3(c4ccccc4)CCN(C)CC3)ccc2n1` [Example 10], the IC50 was above 300 nM at NK-1 (Table 1) and 0.01 to 100 nM at hSERT (setting [1]).

For `Cc1cc(C(C)OCC2(c3ccccc3)CCNCC2)c2ncccc2c1` (centres unmarked) [Example 41], the half-inhibitory concentration (IC50) at NK-1 (Table 1) and at hSERT (setting [1]) was 0.01 to 100 nM each time.

`N#Cc1ccc(-c2cc(COCC3(c4ccccc4)CCNCC3)c3ncccc3c2)cc1` [Example 24]: the IC50 is above 300 nM on NK-1 (Table 1) and 0.01 to 100 nM on hSERT (setting [1]).

Turning to `CC(OCC1(c2ccc(F)cc2)CCNCC1)c1cc(Br)cc2cccnc12` (single isomer, unassigned) [Example 77], the IC50 on NK-1 (Table 1a, single enantiomers) was 0.01 to 100 nM; on hSERT (setting [2]), 0.01 to 100 nM.

As to `CN(C)c1cc(COCC2(c3ccccc3)CCNCC2)nc2cc(C(F)(F)F)ccc12` [Example 18, N,N-dimethyl-2-(((4-phenylpiperidin-4-yl)methoxy)methyl)-7-(trifluoromethyl)quinolin-4-amine], the half-inhibitory concentration (IC50) at NK-1 (Table 1) is above 300 nM; at hSERT (setting [1]), 0.01 to 100 nM.

For the compound `c1ccc(C2(COCc3ccc4ccccc4n3)CCNCC2)cc1` [Example 5], the IC50 on NK-1 (Table 1) was above 300 nM; at hSERT (setting [1]), 0.01 to 100 nM.

In the case of `N#Cc1ccc(-c2cc(COCC3(c4ccccc4)CCNCC3)nc3ccccc23)cc1` [Example 15, 4-(2-(((4-phenylpiperidin-4-yl)methoxy)methyl)quinolin-4-yl)benzonitrile], the concentration for half-maximal inhibition (IC50) on NK-1 (Table 1) is above 300 nM; at hSERT (setting [1]), 0.01 to 100 nM.

With `CC(OCC1(c2ccc(F)cc2F)CCN(C)CC1)c1cc(C(F)(F)F)cc2cccnc12` (centres unmarked) [Example 38], the half-maximal inhibitory concentration (IC50) on NK-1 (Table 1) and on hSERT (setting [1]) was 0.01 to 100 nM throughout.

`CC(OCC1(c2ccccc2)CCNCC1)c1cc(C(F)(F)F)cc2cccnc12` (single isomer, unassigned) [Example 71]: the IC50 on NK-1 (Table 1a, single enantiomers) fell in the range of 0.01 to 100 nM; at hSERT (setting [2]) it was 0.01 to 100 nM.

Turning to `Brc1cc(COCC2(c3ccccc3)CCNCC2)c2ncccc2c1` [Example 22], the IC50 on NK-1 (Table 1) and on hSERT (setting [1]) was 0.01 to 100 nM throughout.

As for `Cc1cc(COCC2(c3ccccc3)CCN(C)CC2)c2ccccc2n1` [Example 2, 2-methyl-4-(((1-methyl-4-phenylpiperidin-4-yl)methoxy)methyl)quinoline], the figures for the IC50 on NK-1 (Table 1) and on hSERT were above 300 nM and 0.01 to 100 nM, respectively.
